This is an account of results in ChEMBL document CHEMBL3286360, “Tuning the antimicrobial pharmacophore to enable discovery of short lipopeptides with multiple modes of action” (Eur J Med Chem, 2014).

The term MIC denotes the smallest concentration in the dilution series that meets the test's criterion for growth inhibition. A lower MIC goes with greater potency.

Series [1] is described as follows: Cytotoxicity against human TZM-b1 cells assessed as cell death at 40 ug/ml after 1 hr by flow cytometry (reference value: 0 to 0.20 %). In kind it is cell-based. The conditions noted are these: tzm-b1, 1 h. In general terms: In flow cytometry, cells or beads pass a laser one at a time.
Series [2] can be described thus: Cytotoxicity against human TZM-b1 cells assessed as cell death at 40 ug/ml after 2 hrs by flow cytometry (reference value: 0 to 0.20 %). As to conditions: tzm-b1, 2 h. In kind it is cell-based.
Series [3] deals with Escherichia coli. Briefly: Antimicrobial activity against Escherichia coli ATCC 25922 assessed as disruption of membrane integrity measured as PI dye influx at 50 ug/ml after 20 mins by fluorescence microscopy. In kind it is functional, organism-based.
Series [4] can be described thus: Cytotoxicity in human erythrocytes assessed as hemolysis at 250 ug/ml after 1 hr relative to control. It is filed as cell-based, Erythrocyte. The conditions noted are these: read-out: Activity.
The next series concerns Candida albicans. The series can be described thus: Antimicrobial activity against Candida albicans ATCC 14053 after 17 to 20 hrs by serial dilution method. In kind it is functional.
The test system of series [5] is Escherichia coli. The series can be described thus: Antimicrobial activity against Escherichia coli ATCC 25922 after 17 to 20 hrs by serial dilution method. In kind it is functional.
In series [6] the test system is Staphylococcus aureus. The series can be described thus: Antimicrobial activity against Staphylococcus aureus ATCC 12600 assessed as disruption of membrane integrity measured as PI dye influx at 250 ug/ml after 20 mins by fluorescence microscopy. In kind it is functional, organism-based.
For series [7], the system named is Staphylococcus aureus. The series can be described thus: Antimicrobial activity against Staphylococcus aureus ATCC 12600 after 17 to 20 hrs by serial dilution method. It is filed as functional.
Series [8] relates to Staphylococcus aureus. The series can be described thus: Antimicrobial activity against Staphylococcus aureus ATCC 12600 assessed as disruption of membrane integrity measured as PI dye influx at 50 ug/ml after 20 mins by fluorescence microscopy. In kind it is functional, organism-based.
For a further series, the system named is Priestia megaterium. Briefly: Binding affinity to Bacillus megaterium pHis1525 DNA at 25 to 50 ug/ml after 30 mins by agarose gel electrophoresis.
A short description of series [9]: Cytotoxicity against human TZM-b1 cells assessed as survival at 40 ug/ml after 2 hrs by flow cytometry. As to conditions: read-out: Survival. It is filed as cell-based.
The subject of series [10] is Staphylococcus aureus. The series can be described thus: Antimicrobial activity against Staphylococcus aureus ATCC 12600 assessed as cell death at 40 ug/ml after 1 hr by flow cytometry. It is filed as functional.
In series [11] the test system is Escherichia coli. The series can be described thus: Antimicrobial activity against Escherichia coli ATCC 25922 assessed as disruption of membrane integrity measured as PI dye influx at 250 ug/ml after 20 mins by fluorescence microscopy. It is filed as functional.
A short description of series [12]: Cytotoxicity against human TZM-b1 cells assessed as cell death at 125 ug/ml after 48 hrs by MTT assay. It is filed as cell-based. As to conditions: tzm-b1, 48 h. For orientation: Formazan colour is commonly taken as a measure of viable cells.
Series [13] can be described thus: Cytotoxicity in human erythrocytes assessed as hemolysis at 125 ug/ml after 1 hr relative to control. It is filed as cell-based, Erythrocyte. As to conditions: read-out: Activity.
Series [14] in a line: Cytotoxicity against human TZM-b1 cells assessed as cell death after 48 hrs by MTT assay. It is filed as cell-based. As to conditions: tzm-b1, 48 h.
Series [15] in a line: Cytotoxicity against human TZM-b1 cells assessed as cell death at 500 ug/ml after 48 hrs by MTT assay. In kind it is cell-based. The conditions noted are these: tzm-b1, 48 h.

Values after ≈ are worked out from the molar mass of the structure shown. Active and inactive are the calls of the source. Where a SMILES comes first, the peptide text is derived from it. The star is where a group is joined. Myristoyl = CCCCCCCCCCCCCC(=O)*; Decanoyl = CCCCCCCCCC(=O)*

Regarding `CCCCCCCCCC(=O)N[C@@H](CCCNC(=N)N)C(=O)N[C@H](C(=O)N[C@@H](CCCCN)C(=O)N[C@@H](Cc1c[nH]c2ccccc12)C(=O)N[C@@H](CCCCN)C(N)=O)[C@@H](C)CC` (Decanoyl-RIKWK-NH2), the values for the Activity (in series [1]; in series [2]; with Staphylococcus aureus [10]) were 0.074%, 0.083% and above 95%, respectively. Also, the outcome in the series on Escherichia coli [3], in the series with Staphylococcus aureus [6], in the series on Staphylococcus aureus [8] and in the series with Escherichia coli [11] was Active. The hemolysis at 1 h, 250 ug/ml in series [4] was below 10%. Further, the MIC is above 62.5 µg/mL in the series with Candida albicans, 15.6 µg/mL (≈ 17.7 µM) against Escherichia coli [5] and 7.8 µg/mL (≈ 8.83 µM) in the series with Staphylococcus aureus [7]. Moreover, the result in the series with Priestia megaterium was inactive. In addition, in series [9], the viability at 2 h, 40 ug/ml was above 99%.

Turning to `CCCCCCCCCC(=O)N[C@@H](CCCNC(=N)N)C(=O)N[C@@H](CCCCN)C(=O)N[C@@H](Cc1c[nH]c2ccccc12)C(=O)N[C@@H](Cc1c[nH]c2ccccc12)C(=O)N[C@@H](CCCCN)C(N)=O` (Decanoyl-RKWWK-NH2), the Activity is recorded as 0.072% in [1]; 0.128% in series [2]; “Toxic” in [12]; above 95% in the series on Staphylococcus aureus [10]; “Toxic” in [14]. Also, the result with Escherichia coli [3], with Staphylococcus aureus [6], in the series with Staphylococcus aureus [8] and in the series on Priestia megaterium was Active. The MIC against Candida albicans stood at 15.6 µg/mL (≈ 16.3 µM); against Escherichia coli [5], 3.9 µg/mL (≈ 4.08 µM); in the series on Staphylococcus aureus [7], 3.9 µg/mL (≈ 4.08 µM). In series [13], the hemolysis at 1 h, 125 ug/ml is below 10%. Moreover, in series [9], the viability at 2 h, 40 ug/ml was above 99%. Further, the CC50 in the series with Escherichia coli [11] (ATCC 25922, 20 min) turned out to be 115 µg/mL (≈ 120 µM).

As for `CCCCCCCCCC(=O)N[C@@H](CCCCN)C(=O)N[C@@H](Cc1c[nH]c2ccccc12)C(=O)N[C@@H](CCCCN)C(N)=O` (Decanoyl-Lys-Trp-Lys-NH2), the hemolysis at 1 h, 250 ug/ml in series [4] was below 10%. Also, the results for the MIC against Candida albicans, against Escherichia coli [5] and against Staphylococcus aureus [7] were above 62.5 µg/mL, above 31.2 µg/mL and 31.2 µg/mL (≈ 50.8 µM), respectively.

Consider `CCCCCCCCCCCCCC(=O)N[C@@H](CCCNC(=N)N)C(=O)N[C@H](C(=O)N[C@@H](CCCCN)C(=O)N[C@@H](Cc1c[nH]c2ccccc12)C(=O)N[C@@H](CCCCN)C(N)=O)[C@@H](C)CC` (Myristoyl-RIKWK-NH2), for which, in series [4], the hemolysis at 1 h, 250 ug/ml amounted to 20%. Besides, the minimal inhibitory concentration (MIC) was above 62.5 µg/mL against Candida albicans, 15.6 µg/mL (≈ 16.6 µM) in the series with Escherichia coli [5] and 15.6 µg/mL (≈ 16.6 µM) against Staphylococcus aureus [7].

As to `CCCCCCCCCCCCCC(=O)N[C@@H](CCCCN)C(=O)N[C@@H](Cc1c[nH]c2ccccc12)C(=O)N[C@@H](CCCCN)C(=O)N[C@@H](Cc1c[nH]c2ccccc12)C(N)=O` (Myristoyl-KWKW-NH2), the MIC is above 62.5 µg/mL against Candida albicans, 7.8 µg/mL (≈ 9.11 µM) with Escherichia coli [5] and 3.9 µg/mL (≈ 4.56 µM) against Staphylococcus aureus [7]. In addition, in series [13], the hemolysis at 1 h, 125 ug/ml was 17%.

Turning to `CCCCCCCCCCCCCC(=O)N[C@@H](CCCCN)C(=O)N[C@@H](Cc1c[nH]c2ccccc12)C(=O)N[C@@H](CCCCN)C(N)=O` (Myristoyl-Lys-Trp-Lys-NH2), the hemolysis at 1 h, 250 ug/ml in series [4] stood at 19%. For the same compound, the values for the MIC in the series with Candida albicans, with Escherichia coli [5] and against Staphylococcus aureus [7] were above 62.5 µg/mL, 7.8 µg/mL (≈ 11.6 µM) and 7.8 µg/mL (≈ 11.6 µM), respectively. Further, the hemolysis at 1 h, 125 ug/ml in series [13] is 11%.

As to `CCCCCCCCCCCCCC(=O)N[C@@H](CCCCN)C(=O)N[C@@H](Cc1c[nH]c2ccccc12)C(=O)N[C@@H](Cc1c[nH]c2ccccc12)C(=O)N[C@@H](CCCCN)C(N)=O` (Myristoyl-KWWK-NH2), the minimal inhibitory concentration (MIC) in the series with Candida albicans amounted to 15.6 µg/mL (≈ 18.2 µM); against Escherichia coli [5], 7.8 µg/mL (≈ 9.11 µM); in the series with Staphylococcus aureus [7], 3.9 µg/mL (≈ 4.56 µM). The hemolysis at 1 h, 125 ug/ml in series [13] came to 56%.

On to H-RKWWK-NH2, for which the Activity entry in series [15] is on record as “Non-toxic”. The MIC was above 62.5 µg/mL in the series with Escherichia coli [5] and 62.5 µg/mL against Staphylococcus aureus [7].
